Where two headings read alike, the source gives them in different places. Ends that are not written are not given here.
Key:
[1] = tested on: Vero, HepG2, and Caco-2 cell lines; details: ref [36], [37], cited from earlier work
Description: The use of bacteriocins as antibacterial agents offers a promising solution to some of the most challenging public health problems today, such as the emergence of difficult-to-treat infections caused by antibiotic-resistant pathogens ([29]) or the breakouts of foodborne diseases ([30]). Here, we have identified nine new bacteriocins of which five (MurA, MsnC, RhmB, AglA, and LcbC) could have potential in the treatment of infections caused by vancomycin-resistant Enterococcus faecium and Enterococcus faecalis strains ([31]), and four (MurA, MsnC, RhmB, and AglA) in the prevention of L. monocyto ...

[2] = tested on: Spontaneous Man-PTS mutants of L. garvieae IBB3403; assay: 2-fold serial dilutions sensitivity assay, Table S4; format: cell-based, Lactococcus garvieae
Description: (§1) To identify the individual amino acid residues of Man-PTS required for the sensitivity to the newly defined bacteriocins, and thus probably involved in their interaction with the receptor, spontaneous mutants of L. lactis IL1403 and L. garvieae IBB3403 with resistance to individual bacteriocins and preserved Man-PTS functionality were selected. Out of the nine new bacteriocins, five (GarAG3, RhmB, LcnC, EntG1, and MurA) were potent enough to produce resistant mutants in their presence. In total, 34 resistant L. lactis IL1403 mutants were obtained, including three selected in the presence of RhmB, 15 in the presence of EntG1, 2—LcnC, and 14—MurA; 38 resistant L. garvieae IBB3403 mutants were obtained in the presence of GarAG3 (Table S1). They were 4- to over 1,024-fold less sensitive to the bacteriocin used for the selection than the parental strain and carried, respectively, a combined total of 11 and 10 independent mutations in the ptnCD genes of L. lactis IL1403 and the manCD genes of L. garvieae IBB3403. Ten mutations in L. lactis led to amino acid substitutions in IIC (Gly62Val, Ala110Thr, Met120Ile, and Ala187Val) or IID (Gly126Ser, Ala127Thr, Ser214Leu, Gly221Cys, Tyr223Cys, and Gly229Val), and one led to the deletion of eight amino acids (221-228GlyAlaTyrLeuGluPheProLys) in IID.
(§2) The activity of peptides of interest against indicator strains and L. garvieae IBB3403- or L. lactis IL1403-derived strains was determined using the spot-on-lawn assay as described previously ([7]). Spontaneous bacteriocin-resistant mutants were selected by growing L. garvieae IBB3403 or L. lactis IL1403 in the presence of a bacteriocin in CDM ([43]) supplemented with 1% mannose (Man-CDM) as described previously ([7]). GarAG3-resistant L. garvieae IBB3403 mutants (LG1—LG32, LG34–LG38, and LG40) were selected at the bacteriocin concentration of 0.024 µg/mL. L. lactis IL1403 mutants resistant to EntG1 (LLG1–LLG3, LLG7–LLG9, LLG11, LLG12, LLG14, LLG19, LLG21, LLG25, LLG32, LLG46, and LLG50), RhmB (LLB2, LLB3, and LLB17), MurA (LLA1, LLA7, LLA8, LLA12, LLA19–LLA22, LLA24, and LLA26–LLA30), and LcnC (LLC1, LLC2) were selected at bacteriocin concentrations of 12.5µg/mL, 1.56µg/mL, 1.56 µg/mL, and 4 ng/mL, respectively. The sensitivity of the mutants was determined using 2-fold serial dilutions assay as described previously ([7]).
Table S4. Spontaneous mutants of L. garvieae IBB3403 resistant to GarAG3, GarA, GarB, GarC, GarQ, MurA, and ubericin K
(§3) Sensitivity to Position in the cell
(§4) Mutant strain Mutation Amino acid change [fold-decreased relative to WT] membrane of affected
GarAG3 GarA GarB GarC GarQ MurA Ubericin Man-PTS amino acid(s)
LG9 manD: 800G>T ManD: Gly267Val 16x 0x 8x 2x 4x 0.5x 4x extracellular (region γ+)
TTGTTGGTAACG 262_265delAsnValValGly
GTAACGGTGTTG 265_268delGlyAsnGlyVal
LGA10 manD: 173C>A ManD: Ala58Asp 8x 2x 4x 4x 2x 2x 8x transmembrane (HP2a)
5 μl of each bacteriocin at a concentration of 1 mg/ml was used; “>” substitution; “del”deletion; “ins” insertion

[3] = tested on: Spontaneous Man-PTS mutants of L. lactis IL1403; assay: 2-fold serial dilutions sensitivity assay, Table S3; format: cell-based, Lactococcus lactis
Description: as §1, §2
Table S3. Spontaneous mutants of L. lactis IL1403 resistant to RhmB, EntG1, LcnC, MurA, GarQ, BacSJ, ubericin K, and GarC
as §3, §4
RhmB EntG1 LcnC MurA GarQ BacSJ Ubericin GarC Man-PTS amino acid(s)
mutations GlyAlaTyrLeuGluPheProLys
“>” substitution; “del”deletion

[4] = biological target: Man-PTS membrane complex IICIID of L. garvieae (ManCD) (L. garvieae (endogenous in L. garvieae IBB3403))

Substance: PedPA-1: subclass IIa pediocin-like bacteriocin (KYYGNGVTCGKHSCSVDWGKATTCIINNGAMAWATGGHQGNHKC; ends and bridges not checked; cysteine pairing not given here; UniProt P29430 19-62, looked up)
- Cytotoxicity ([1]; up to 400 μg/mL): no cytotoxicity

Substance: EYHLMNGANGYLTRVNGKYVYRVTKDPVSAVFGVISNGWGSAGAGFGPQH [GarQ]
- Sensitivity to [fold-decreased relative to WT] ([2]; LG1 etc., ManD: Arg203Leu): 0 x
- Sensitivity to [fold-decreased relative to WT] ([2]; LG2, ManC: Gly60Cys): 32 x
- Sensitivity to [fold-decreased relative to WT] ([2]; LG6, ManD: Trp256Leu): 16 x
- Sensitivity to [fold-decreased relative to WT] ([2]; LG9, ManD: Gly267Val): 4 x
- Sensitivity to [fold-decreased relative to WT] ([2]; LG11, 13, 22, 28, ManD: Arg203Cys): 2 x
- Sensitivity to [fold-decreased relative to WT] ([2]; LG12, ManD: 262_265delAsnValValGly): 4 x
- Sensitivity to [fold-decreased relative to WT] ([2]; LG18, ManD: 265_268delGlyAsnGlyVal): 4 x
- Sensitivity to [fold-decreased relative to WT] ([2]; LG23, 29, ManC: Gly188Val): 4 x
- Sensitivity to [fold-decreased relative to WT] ([2]; LG32, ManD: Ser318Leu): 2 x
- Sensitivity to [fold-decreased relative to WT] ([2]; LG36, ManC: Gly60Val): 128 x
- Sensitivity to [fold-decreased relative to WT] ([2]; LGA2, ManC: Leu59Pro): 128 x
- Sensitivity to [fold-decreased relative to WT] ([2]; LGA3, ManC: Gly52Val): 4 x
- Sensitivity to [fold-decreased relative to WT] ([2]; LGA6, ManC:190_191insVal): 4 x
- Sensitivity to [fold-decreased relative to WT] ([2]; LGA10, ManD: Ala58Asp): 2 x
- Sensitivity to [fold-decreased relative to WT] ([2]; LGB6, ManD: Gln313Lys): 2 x
- Sensitivity to [fold-decreased relative to WT] ([2]; LGC1, ManD: Met34Ile): 0 x
- Sensitivity to [fold-decreased relative to WT] ([2]; LGC8, ManD: Tyr226Asp): 16 x
- Sensitivity to [fold-decreased relative to WT] ([2]; LGC13, ManC: Ala106Val): 4 x
- Sensitivity to [fold-decreased relative to WT] ([2]; LGC15, ManD: Ala133Val, Val315Met): 4 x
- Sensitivity to [fold-decreased relative to WT] ([2]; LGN1, ManD: Gly301Val): > 1024 x
- Sensitivity to [fold-decreased relative to WT] ([2]; LGN2, ManD: Ala133Val): 16 x
- Sensitivity to [fold-decreased relative to WT] ([2]; LGN9, ManC: Ala102Val): 16 x
- Sensitivity to [fold-decreased relative to WT] ([2]; PW202, ManC: Pro100His): > 1024 x
- Sensitivity to [fold-decreased relative to WT] ([2]; PW203, ManD: Thr123Ile): > 1024 x
- Sensitivity to [fold-decreased relative to WT] ([2]; PW204, ManD: Pro111Ser): > 1024 x
- Sensitivity to [fold-decreased relative to WT] ([3]; LLA1 etc. (MurA-resistant), PtnC: Ala110Thr): 4 x
- Sensitivity to [fold-decreased relative to WT] ([3]; LLB2,LLB3, PtnD: Gly126Ser): 0 x
- Sensitivity to [fold-decreased relative to WT] ([3]; LLB17, PtnD: Ser214Leu): 256 x
- Sensitivity to [fold-decreased relative to WT] ([3]; LLC1, LLC2, PtnC: Gly62Val): 64 x
- Sensitivity to [fold-decreased relative to WT] ([3]; LLG1, LLG2, PtnD: 221-228del): 16 x
- Sensitivity to [fold-decreased relative to WT] ([3]; LLG3, LLG9, LLG11, LLG32, LLG46, PtnD: Gly229Val): 16 x
- Sensitivity to [fold-decreased relative to WT] ([3]; LLG7, LLG19, LLG21, PtnD: Ala127Thr): 8 x
- Sensitivity to [fold-decreased relative to WT] ([3]; LLG8, PtnD: Gly221Cys): 16 x
- Sensitivity to [fold-decreased relative to WT] ([3]; LLG12, LLG14, PtnC: Ala187Val): 8 x
- Sensitivity to [fold-decreased relative to WT] ([3]; LLG25, PtnD: Tyr223Cys): 16 x
- Sensitivity to [fold-decreased relative to WT] ([3]; LLG50, PtnC: Met120Ile): 4 x
- Sensitivity to [fold-decreased relative to WT] ([3]; LLN1, PtnD: Pro123His): > 1024 x
- Sensitivity to [fold-decreased relative to WT] ([3]; M6, PtnD: Arg200His): 8 x
- Sensitivity to [fold-decreased relative to WT] ([3]; M16, PtnD: Leu83Phe): 0 x
- Sensitivity to [fold-decreased relative to WT] ([3]; M19, PtnD: Phe226Ser): 8 x
- Sensitivity to [fold-decreased relative to WT] ([3]; M30, PtnD: Leu197Phe): 16 x
- Cytotoxicity ([1]; highly purified, concentrations up to 1 mg/mL): no cytotoxicity

Substance: GarQ_(Tyr11Leu) (peptide)
- minimum inhibitory concentration against L. garvieae IBB3403, fold decrease in activity relative to native GarQ [4]: > 512 fold

Substance: GarQ_(Asn9Gly) (peptide)
- minimum inhibitory concentration against L. garvieae IBB3403, fold decrease in activity relative to native GarQ [4]: > 512 fold

Source: publication PMC11403280, “Subclass IId bacteriocins targeting mannose phosphotransferase system—Structural diversity and implications for receptor interaction and antimicrobial activity” (PNAS Nexus, 2024)
